The values below come from patent US9260473B2, “Bivalent multifunctional ligands targeting Aβ oligomers as treatment for Alzheimer's disease” (Virginia Commonwealth University, priority 2010, dated 2016).

One data set relates to MC65 cells. Put plainly: Cytotoxicity assay in MC65 cells (MTS, +TC/−TC). The data set is classed as cell-based, human. The source says:
Protective effects of 14 on AβOs-induced cytotoxicity in MC65 cells and differentiated human neuroblastoma SH-SY5Y cells. […] To further verify whether 14 can protect cells from extracellular AβOs-induced cytotoxicity, all trans-retinoic acid differentiated human SH-SY5Y cells were employed. […] This may further indicate that while both 1 and 14 can bind to AβOs, CM/LR anchorage of 14 can increase its accessibility to intracellular target AβOs. Since CM/LR are crucial for many aspects of cell signaling and functions, 14 was further evaluated for its potential cytotoxicity in mouse spleen and natural killer (NK) cells.
Cytotoxicity assay in MC65 cells. MC65 cells were seeded in 96-well plates (4×10^4 cells/well) at 37° C., 5% CO2 for 24 hrs. The medium was removed and washed with PBS twice. Opti-MEM and test compounds were added under +TC and −TC conditions. The plates were incubated at 37° C., 5% CO2 for 72 hrs, then 20 uL CellTiter 96 AQueous One Solution (Promega, Madison, Wis.) were added to each well and the plates were incubated at 37° C., 5% CO2 for 2-4 hrs. The plates were read at 490 nm using FlexStation III plate reader (Molecular Devices). The blank with only test compounds in Opti-MEM was set up as background control for all of the tested concentrations. Each data point was averaged from six replicates and the experiments were independently repeated at least three times.

Data set [1] concerns AβOs. The data set can be described thus: Immunocytochemistry assay of AβOs in MC65 cells (A11 antibody). The data set is classed as cell-based, human. As to conditions: 10 μM, 24 hrs after removal of TC.
Protocol: MC65 cells were treated with the indicated compounds (10 μM) immediately after the removal of TC. After 24 hrs, the cells were fixed and immunofluorescently stained for AβOs, CM/LR, and nucleus and imaged with a Leica TCS-SP2 AOBS confocal laser scanning microscope. Five areas were examined.
Immunocytochemistry assay. MC65 cells were plated onto Lab-Tee chamber slides (1×10^4 cells/well). After 24 hrs incubation at 37° C. and 5% CO2, Opti-MEM was added (with or without TC) and followed by test compounds. MC65 cells were incubated for 24 hrs. MC65 cells were rinsed 3× with PBS and incubated with Alexa 488-conjugated CTX-B (10 ug/mL) for 15 min on ice. After rinsing once with ice-cold PBS, cells were fixed for 30 min with 4% paraformaldehyde. MC65 cells were permeabilized for 30 min with 0.1% Triton X 100. Then MC65 cells were stained with A11 rabbit antibody followed by anti-rabbit Alexa 568 (1:500). Finally MC65 cells were treated with DAPI (5 ug/mL) and mounted with Vectashield Mounting Media. Cell fluorescence was analyzed by a Leica TCS-SP2 AOBS confocal laser scanning microscope equipped with blue diode, Argon, and 3 HeNe (lasers as well as a spectrophotometer based detection system with variable detector windows) using excitation lines at 355 nm, 488 nm, and 568 nm for DAPI, Alexa 488-conjugated CTX-B, and Alexa Fluor 568 donkey anti-rabbit IgG. […]
Data set [2] deals with AβOs. Put plainly: Western blot assay of AβOs formation in MC65 cells (6E10 antibody). In kind it is cell-based, human. Particulars: 10 μM, 24 hrs after removal of TC. The text has this:
Inhibition of AβOs production by designed BMAOIs. […] The whole cell assay is a composite of not only Aβ oligomerization inhibition but also permeability, stability and other factors will validate the accessibility and function of our BMAOIs. MC65 is a human neuroblastoma cell line that conditionally expresses C99, the C-terminus fragment of APP using tetracycline (TC) as transgene suppressor.^38 Upon removal of TC, these cells can produce intracellular Aβ aggregates including small AβOs. […] All BMAOIs were first evaluated at a single concentration of 10 μM. Candidate compounds with inhibitory activities at this concentration were further evaluated in a dose-dependent manner in the following assays. […]
Western blot assay. […] Pellet was lysed by sonication in 1× lysis buffer (62.5 mM Tris base, pH6.8, 2% SDS, 50 mM DTT, 10% glycerol, 0.1% bromphenol blue, and […] each chymostatin, leupeptin, aprotinin, pepstatin, and soybean trypsin inhibitor) and protein level was determined using Coomassie Protein Assay Reagent (Pierce, Rockford, Ill.). […]
Background: Immunoblotting shows a protein as a band on a membrane.

For a further data set, the target named is T1, Aβ42 (Homo sapiens, UniProt P05067).
T1 construct: Aβ42 was obtained from American Peptide, Inc. (Sunnyvale, Calif.); purchased American Peptide, Inc. (Sunnyvale, Calif.)
Put plainly: Aβ42 oligomerization inhibition assay (Western blot). In kind it is biochemical. As to conditions: Aβ42 5 μM, compound 20 μM, 4 hrs at 37° C.

The test system of data set [3] is intracellular oxidative stress. The data set can be described thus: DCFH-DA antioxidation assay in MC65 cells. In kind it is cell-based, human. As to conditions: −TC, 24 hrs.
Protocol: DCFH-DA antioxidation assay. MC65 cells were seeded in 96-well plates (4×10^4 cells/well). After incubation at 37° C., 5% CO2 for 24 hrs, the medium was removed and washed with PBS. Opti-MEM and test compounds were added (+TC, −TC, and blank with only test compounds). MC65 cells were incubated at 37° C., 5% CO2 for 24 hrs. Then DCFH-DA in Opti-MEM was added to each well (final DCFH-DA concentration was 25 uM) and incubate at 37° C., 5% CO2 for 30 min. The medium was removed and replaced with fresh opti-MEM and plates were read for fluorescence intensity at 485 nm (excitation)/530 nm (emission) using FlexStation III plate reader (Molecular Devices).
The next data set concerns SH-SY5Y cells. Put plainly: Cytotoxicity assay in differentiated SH-SY5Y cells treated with AβOs. In kind it is cell-based, human. Particulars: AβOs 1 μM.

Molecules are shown by their SMILES.

T1 sequence (P05067 672-713 limits assumed): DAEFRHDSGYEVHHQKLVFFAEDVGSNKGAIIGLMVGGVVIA
Protocol for Aβ42: In order to confirm 14 can bind to AβOs, the inhibition of Aβ42 oligomerization was performed and assessed using Western blot analysis as described in literature^29 in order to investigate binding interactions of 14 with Aβ42 and the CM/LR of MC65 cells. Briefly, Aβ42 (5 μM) was incubated with or without compounds (20 μM), then samples were analyzed by Western blot using 6E10 antibody.
Aβ42 oligomerization inhibition assay. An aliquot of Aβ42 (0.045 mg) was dissolved in 20 μL of DMSO and diluted in Ham's F-12 media without phenol red (Caisson's Laboratory, Inc., Utah). […] After incubation, the samples (50 μL) were spun down at 14,000×g for 10 min. The supernatant (20 μL) was mixed with an equal part of Tricine sample buffer without reducing agents (Bio-Rad). The unaggregated Aβ42 control was not incubated at 37° C., and mixed with sample buffer (no centrifuging) and stored at −80° C. before it was electrophoresed. Samples (25 μL) were electrophoresed on a 10-20% Tris-Tricine gel, transferred to PVDF membrane, and blocked with 10% nonfat milk in PBS for 30 min. […] The proteins were visualized by Western Blot Chemiluminescence Reagent (NEN Life Science Products, Boston, Mass.).
Protocol for SH-SY5Y cells: Cytotoxicity assay in differentiated SH-SY5Y cells. SH-SY5Y cells were plated at 10,000 cells/well in type 1 collagen coated 96-well plates (Invitrogen) and were differentiated in Opti-MEM supplemented with 2% B-27 (Invitrogen) and 10 μM all-trans-retinoic acid for 7 days. The medium was removed and replaced with fresh maintenance medium. Freshly prepared Aβ42 oligomers in Ham's F-12 medium (1 μM) was added to cells for 48 hrs at 37° C. with or without test compounds. After treatment, 20 uL CellTiter 96 AQueous One Solution (Promega, Madison, Wis.) were added to each well and the plates were incubated at 37° C., 5% CO2 for 2-4 hrs. The plates were read at 490 nm in FlexStation III plate reader (Molecular Devices). Each data point was averaged from six replicates and the experiments were independently repeated at least three times.

With `CC(=O)N[C@@H](CS)C(=O)O` [NAC, N-acetylcysteine], the “rescue of MC65 cells from AβOs-induced cytotoxicity” value with MC65 cells (−TC) was 48%.

For the compound `COc1cc(/C=C/C(=O)CC(=O)/C=C/c2ccc(O)c(OC)c2)ccc1O` [compound 1, curcumin, reference compound], the “formation of AβOs (A11 immunocytochemistry)” value in the data set with AβOs [1] is on record as “slightly suppressed”. The “toxic effects on MC65 cell viability in the presence of TC” value in the data set on MC65 cells (+TC, tested concentrations, 72 hrs, MTS) is “no toxic effects”. Besides, the “protective effects on MC65 cell viability upon removal of TC” value in the data set on MC65 cells (−TC, 72 hrs, MTS) is “minimal protective effects”. Further, the “inhibition of the formation of AβOs (Western blot)” value in the data set with AβOs [2] is on record as “did not exhibit inhibition”. In addition, on Aβ42, the “inhibition of oligomerization of Aβ42” value was “inhibited the oligomerization of Aβ42”. Also, the “suppression of intracellular oxidative stress (DCFH-DA fluorescence)” value in data set [3] is given as “suppressed the intracellular oxidative stress in a dose-depndent manner”. For the same compound, the “protection of SH-SY5Y cell viability from AβOs” value was “not at 16 μM” in the data set on SH-SY5Y cells (48 hrs, 16 μM); “moderate protective activities” in the data set with SH-SY5Y cells (48 hrs, 2, 4, and 8 μM).

For the compound `Cc1c(C)c2c(c(C)c1O)CCC(C)(C(=O)O)O2` (stereo not shown) [trolox, 6-hydroxy-2,5,7,8-tetramethyl chroman-2-carboxylic acid], the “rescue of MC65 cells from AβOs-induced cytotoxicity” value in the data set on MC65 cells (−TC, 32 μM) is “completely rescued”.
